From patent US4250259A, “Microbiological production of ketones from C3 -C6 secondary alcohols” (priority 1979, dated 1981) come the findings set out here.

In the experiment the test system is secondary alcohol dehydrogenase (SADH), cell-free soluble extract. Conditions: Growth Substrate CH4. Here is the method: To prepare the cell-free secondary alcohol dehydrogenase (SADH) system, the washed cells were disrupted with a Wave Energy Ultrasonic Oscillator, Model W201 (Wave Energy System, Inc., Newtown, Pa.) and centrifuged at 20,000×g. for 30 minutes. […] The enzyme activity was measured with a fluorescence spectrophotometer (Perkin Elmer, Model MPF 44A) by following the formation of reduced NAD (EX 340 nm, Em 460 nm). The formation of reduced NAD was also followed with an absorption spectrophotometer at 340 nm. The assay system (3 ml.) contained: potassium phosphate buffer pH 7.0; 150 μmol.; NAD 1 μmol.; a given amount of enzyme preparation; and secondary alcohol 10 μmol. The reaction was started by the addition of substrate. One unit of enzyme activity represents the reduction of one μmole NAD per minute. Protein concentrations were determined by the Lowry method (J. Biol. Chem., 193: 255-275 (1951)).
The experimental procedure for the tests reported in Table VIII were as follows: 1 mg protein of crude extract was added into a 0.5 ml. 0.05 M phosphate buffer (pH 7.0) in a 10-ml. vial. […] The reaction mixture was incubated at 30° C. on a water bath. A 3 μl sample was removed with a syringe at 15 min. of incubation and was assayed with g.l.c. Catalytic activity was also assayed by fluorescence spectrophotometry.

For `CCC(C)O` (stereo not shown) [2-Butanol, 2-butanol], the “Conversion Rate, 2-butanol to 2-butanone” value turned out to be 1.2 nmoles/min/mg protein.
